Values joined by “and” are separate entries in the source; they are usually repeats but may differ in a detail not shown here. Equal entries are not always repeated. Where two headings read alike, the source gives them in different places. Marks after values point to notes of the source that are not given here.
Assays:
wild-type (WT) Mtb = type: cell-based, Mycobacterium tuberculosis
[1] = system: wild-type (WT) Mtb Erdman strain; assay: MABA, Mtb Erdman strain; type: cell-based; settings: Mycobacterium tuberculosis
Vero cells = assay: CC50 cytotoxicity, Promega CellTiter-Glo Luminescent Cell Viability Assay; type: cell-based, African green monkey; settings: for selectivity index (SI): ratio of CC50 in Vero cells to MABA IC50 in Mtb; for CC50: 72-hour incubation, CellTiter-Glo, n = 3
Experimental: (§1) Cytotoxicity assays were conducted to measure toxicity of compounds at single concentration in Vero TMPRSS2 cells by using quantitation of ATP to indicate metabolically active cells. Vero cells (derived from African Green Monkey kidney epithelial tissue) were grown in Dulbecco's Modified Eagle Medium (DMEM) supplemented with 10% fetal bovine serum (FBS), 10 mM HEPES buffered saline, and 2 mM L-glutamine. 5,000 cells per well were seeded into a 96-well plate containing two-fold titrations of compounds. The concentration of DMSO was maintained at 0.5% for all wells to avoid toxicity. The plates were incubated for 72 hours, at which point they were acclimatized to room temperature for 30 minutes. 25 μL of the substrate/buffer solution from the Promega CellTiter-Glo Luminescent Cell Viability Assay kit was added to each well. The plates were shaken at a low orbital speed for 3 minutes and let rest at room temperature for 10 minutes, after which luminescence was measured using a BioTek Synergy H1 Microplate Reader H1M. The positive control was defined as wells containing cells without compounds.
(§2) Percent viability was input into PRISM GraphPad to calculate CC50 values by plotting as a non-linear regression curve.
(§3) Given the toxicity of an initial hit compound in mammalian cells and the potential concern for toxicity more generally with nitro-containing drugs, the selected compounds were also examined for toxicity in a mammalian cell line using Promega's Cell Titer-Glo assay to assess cellular ATP levels as a read-out of viability. […] A selectivity index (SI) was then calculated for each compound by determining the ratio of the CC50 in Vero cells to the MABA IC50 in Mtb, where the larger the SI, the safer the compound is in eukaryotic cells relative to its effective dose. […] Therefore, not only were the SAR efforts successful in identifying compounds with increased potency against Mtb, but also, the toxicity concerns of the original hit compound were overcome.

[2] = as above; type: cell-based, African green monkey; settings: African green monkey, Vero cells; 72-hour incubation, CellTiter-Glo, n = 3
Experimental: as §1, §2, §3

[3] = Liver microsomal stability, human; settings: human liver microsomes, n = 1
[4] = Liver microsomal stability, mouse; settings: mouse liver microsomes, n = 1
PBS solubility = settings: highest concentration with no detectable precipitate; phosphate-buffered saline
Plasma stability, mouse = settings: n = 1
Plasma stability, human = settings: n = 1
[5] = system: wild-type (WT) Mtb HN878 strain; assay: MABA, Mtb HN878 strain; type: cell-based; settings: Mycobacterium tuberculosis; read-out: IC50 ± S.D. (μM) HN878
Vero TMPRSS2 cells = assay: Cytotoxicity at single concentration, CellTiter-Glo ATP quantitation; type: cell-based, African Green Monkey; settings: 50 uM, 72 hours
Experimental: as §1
Percent viability was calculated as follows: […]

[6] = read-out: IC50 S.D. (μM) Mtb Erdman strain
[7] = read-out: IC50 ± S.D. (μM) Erdman

Compound: CCCCCCC#Cc1cncc(-c2nnc(SC)n2C)c1
- IC50 (wild-type (WT) Mtb): 48 µM

Compound: CCCCCCC#Cc1cncc(-c2nnc(SCc3cc(C(F)(F)F)cc(C(F)(F)F)c3)n2C)c1
- IC50 (wild-type (WT) Mtb): > 200 µM

Compound: CCCCCCC#Cc1cncc(-c2nnc(SCc3ncc([N+](=O)[O-])n3C)n2C)c1
- IC50 (wild-type (WT) Mtb): 94 µM

Compound: CCCCCCC#Cc1cncc(-c2nnc(SCCc3ccc(Cl)cc3)n2C)c1
- IC50 (wild-type (WT) Mtb): 8.2 µM

Compound: CCCCCCC#Cc1cncc(-c2nnc(Sc3ccc(Cl)cc3)n2C)c1
- IC50 (wild-type (WT) Mtb): 13 µM

Compound: CCCCCCC#Cc1cncc(-c2nnc(SCc3ccc(F)c([N+](=O)[O-])c3)n2C)c1
- IC50 (wild-type (WT) Mtb): 44 µM

Compound: CCCCCCC#Cc1cncc(-c2nnc(SCc3ccc(Cl)cc3[N+](=O)[O-])n2C)c1
- IC50 (wild-type (WT) Mtb): > 200 µM

Compound: CCCCCCC#Cc1cncc(-c2nnc(SCc3cc([N+](=O)[O-])cc(C(F)(F)F)c3)n2C)c1
- IC50 (wild-type (WT) Mtb): > 200 µM

Compound: CCCCCCC#Cc1cncc(-c2nnc(Sc3ccc([N+](=O)[O-])c4nonc34)n2C)c1
- IC50 (wild-type (WT) Mtb): 27 µM

Compound: CCCCCCC#Cc1cncc(-c2nnc(SCc3ccc4nonc4c3)n2C)c1
- IC50 (wild-type (WT) Mtb): > 200 µM

Compound: CCCCCCC#Cc1cncc(-c2nnc(SCc3ccc(Cl)cc3)n2CC)c1
- IC50 (wild-type (WT) Mtb): 4.7 µM

Compound: CCCCCCC#Cc1cncc(-c2nnc(SCc3ccc(Cl)cc3)n2CCCC)c1
- IC50 (wild-type (WT) Mtb): > 200 µM

Compound: CCCCCCC#Cc1cncc(-c2nnc(SCc3ccc(Cl)cc3)n2-c2ccccc2)c1
- IC50 (wild-type (WT) Mtb): > 200 µM

Compound: CCCCCCC#Cc1cncc(-c2nnc(SCc3ccc(Cl)cc3)n2Cc2ccccc2)c1
- IC50 (wild-type (WT) Mtb): > 200 µM

Compound: Cn1c(SCc2ccc(Cl)cc2)nnc1-c1cccnc1
- IC50 (wild-type (WT) Mtb): > 200 µM

Compound: Cn1c(SCc2ccc(Cl)cc2)nnc1-c1cncc(Br)c1
- IC50 (wild-type (WT) Mtb): > 200 µM

Compound: CCCC#Cc1cncc(-c2nnc(SCc3ccc(Cl)cc3)n2C)c1
- IC50 (wild-type (WT) Mtb): 15 µM

Compound: CCCCCCC#Cc1ccc(-c2nnc(SCc3ccc(Cl)cc3)n2C)cn1
- IC50 (wild-type (WT) Mtb): > 200 µM

Compound: CCCCCCC#Cc1cncc(-c2nnc(SCc3ccc(Cl)c(F)c3)[nH]2)c1
- IC50 [1, 6]: 5.4 ± 0.03 µM
- selectivity index (SI) (Vero cells): >23
- CC50 at 72 hour [2]: > 125 µM

Compound: CCCCCCC#Cc1cncc(-c2nnc(SCc3ccc([N+](=O)[O-])cc3[N+](=O)[O-])n2C)c1
- IC50 [1, 6]: 1.1 ± 0.1 µM
- selectivity index (SI) (Vero cells): 27
- CC50 at 72 hour [2]: 28 ± 1 µM

Compound: CCCCCCC#Cc1cncc(-c2nnc(SCc3cc([N+](=O)[O-])cc([N+](=O)[O-])c3)n2C2CC2)c1.Cl
- liver microsomal stability t1/2 (min), human [3]: 3.0 min
- liver microsomal stability t1/2 (min), mouse [4]: 5.9 min
- PBS solubility (PBS solubility): 3.1 µM
- plasma stability t1/2 (min), mouse (Plasma stability, mouse): >480; >480 min
- plasma stability t1/2 (min), human (Plasma stability, human): >480; >480 min

Compound: CCCCCCC#Cc1cncc(-c2nnc(SCc3cc([N+](=O)[O-])cc([N+](=O)[O-])c3)n2C)c1 [3,5-dinitrobenzyl analog]
- antimycobacterial activity (wild-type (WT) Mtb; text b333, MABA): 0.5 µM

Compound: NNC(=O)c1ccncc1 [INH, isoniazid, reference compound]
- IC50 [1, 7]: 0.18 ± 0.014 µM
- IC50 [5]: 0.12 ± 0.00051 µM

Compound: CCCCCCC#Cc1cncc(-c2nnc(SCc3ccc(Cl)cc3)n2C)c1 [drawing 51]
- IC50 (wild-type (WT) Mtb): 5.3 µM

Compound: CCCCCCC#Cc1cncc(-c2nnc(SCc3ccc(Cl)c(F)c3)n2C)c1 [drawing 52]
- IC50 (wild-type (WT) Mtb): 4.1 µM

Compound: CCCCCCC#Cc1cncc(-c2nnc(SCc3ccc(Br)cc3)n2C)c1 [drawing 55 R = Br]
- IC50 (wild-type (WT) Mtb): 4.6 µM

Compound: CCCCCCC#Cc1cncc(-c2nnc(SCc3ccc(C(F)(F)F)cc3)n2C)c1 [drawing 55 R = CF3]
- IC50 (wild-type (WT) Mtb): 44 µM

Compound: CCCCCCC#Cc1cncc(-c2nnc(SCc3ccc(C#N)cc3)n2C)c1 [drawing 55 R = CN]
- IC50 (wild-type (WT) Mtb): 8.9 µM

Compound: CCCCCCC#Cc1cncc(-c2nnc(SCc3ccc(F)cc3)n2C)c1 [drawing 55 R = F]
- IC50 (wild-type (WT) Mtb): 6.9 µM

Compound: CCCCCCC#Cc1cncc(-c2nnc(SCc3ccc(OC)cc3)n2C)c1 [drawing 55 R = MeO]
- IC50 (wild-type (WT) Mtb): 8.7 µM

Compound: CCCCCCC#Cc1cncc(-c2nnc(SCc3ccc(C)cc3)n2C)c1 [drawing 55 R = Me]
- IC50 (wild-type (WT) Mtb): 6.1 µM

Compound: CCCCCCC#Cc1cncc(-c2nnc(SCc3ccc([N+](=O)[O-])cc3)n2C)c1 [drawing 55 R = NO2]
- IC50 (wild-type (WT) Mtb): 5.9 µM

Compound: CCCCCCC#Cc1cncc(-c2nnc(SCc3ccc(-c4ccccc4)cc3)n2C)c1 [drawing 55 R = Ph]
- IC50 (wild-type (WT) Mtb): 197 µM

Compound: CCCCCCC#Cc1cncc(-c2nnc(SCCn3c([N+](=O)[O-])cnc3C)n2C)c1 [drawing 58]
- IC50 (wild-type (WT) Mtb): 22 µM

Compound: CCCCCCC#Cc1cncc(-c2nnc(SCc3ccc([N+](=O)[O-])o3)n2C)c1 [drawing 61]
- IC50 (wild-type (WT) Mtb): 0.55 µM

Compound: CCCCCCC#Cc1cncc(-c2nnc(SCc3cccc(Cl)c3)n2C)c1 [drawing 64 R = Cl]
- IC50 (wild-type (WT) Mtb): 15 µM

Compound: CCCCCCC#Cc1cncc(-c2nnc(SCc3ccc(Cl)c(Cl)c3)n2C)c1 [drawing 67]
- IC50 (wild-type (WT) Mtb): 6.8 µM

Compound: CCCCCCC#Cc1cncc(-c2nnc(SCc3cc(F)cc(F)c3)n2C)c1 [drawing 69]
- IC50 (wild-type (WT) Mtb): 8 µM

Compound: CCCCCCC#Cc1cncc(-c2nnc(SCc3ccc(Cl)cc3)n2C2CC2)c1 [drawing 77]
- IC50 (wild-type (WT) Mtb): 3.3 µM

Compound: CCCCCCC#Cc1cncc(-c2nnc(SCc3ccc([N+](=O)[O-])o3)n2C2CC2)c1 [drawing 80]
- IC50 (wild-type (WT) Mtb): < 0.78 µM

Compound: CCCCCCC#Cc1cccc(-c2nnc(SCc3ccc(Cl)cc3)n2C)c1 [drawing 84]
- IC50 (wild-type (WT) Mtb): 8.5 µM

Compound: C#Cc1cncc(-c2nnc(SCc3ccc(Cl)cc3)n2C)c1 [drawing 87]
- IC50 (wild-type (WT) Mtb): 86 µM

Compound: Cn1c(SCc2ccc(Cl)cc2)nnc1-c1cncc(C#Cc2ccccc2)c1 [drawing 88]
- IC50 (wild-type (WT) Mtb): 4 µM

Compound: CCCCCCC#Cc1cncc(-c2nnc(SCc3ccc(Cl)cc3)n2C)c1 [drawing 92]
- IC50 [1, 7]: 1.5 ± 0.19 µM
- IC50 [5]: 0.85 ± 0.043 µM

Compound: CCCCCCC#Cc1cncc(-c2nnc(SCc3ccc(C#N)cc3)n2C)c1 [drawing 93]
- IC50 [1, 7]: 5.3 ± 1.17 µM
- IC50 [5]: 2.3 ± 0.2 µM

Compound: CCCCCCC#Cc1cncc(-c2nnc(SCc3ccc([N+](=O)[O-])cc3)n2C)c1 [drawing 94]
- IC50 [1, 7]: 2.9 ± 0.45 µM
- IC50 [5]: 1.3 ± 0.15 µM

Compound: CCCCCCC#Cc1cncc(-c2nnc(SCc3cc([N+](=O)[O-])cc([N+](=O)[O-])c3)n2C)c1 [drawing 95]
- IC50 [1, 7]: 0.17 ± 0.016 µM
- IC50 [5]: 0.061 ± 0.012 µM

Compound: CCCCCCC#Cc1cncc(-c2nnc(SCc3ccc(Cl)cc3)n2C)c1 [drawing 129]
- IC50 [1, 6]: 5.4 ± 0.5 µM
- selectivity index (SI) (Vero cells): 9.3
- CC50 at 72 hour [2]: 50 ± 5.5 µM

Compound: CCCCCCC#Cc1cncc(-c2nnc(SCc3ccc(C#N)cc3)n2C)c1 [drawing 130]
- IC50 [1, 6]: 27 ± 0.4 µM
- CC50 (Vero cells): > 100 µM
- selectivity index (SI) (Vero cells): >3.7

Compound: CCCCCCC#Cc1cncc(-c2nnc(SCc3ccc([N+](=O)[O-])cc3)n2C)c1 [drawing 131]
- IC50 [1, 6]: 22 ± 13 µM
- selectivity index (SI) (Vero cells): 1.3
- CC50 at 72 hour [2]: 27 ± 5.4 µM

Compound: CCCCCCC#Cc1cncc(-c2nnc(SCc3cc([N+](=O)[O-])cc([N+](=O)[O-])c3)n2C)c1 [drawing 133]
- IC50 [1, 6]: 0.34 ± 0.01 µM
- CC50 (Vero cells): > 100 µM
- selectivity index (SI) (Vero cells): >294

Compound: CCCCCCC#Cc1cncc(-c2nnc(SCc3ccc([N+](=O)[O-])o3)n2C)c1 [drawing 135]
- IC50 [1, 6]: 0.1 ± 0.01 µM
- selectivity index (SI) (Vero cells): 314
- CC50 at 72 hour [2]: 33 ± 2.9 µM

Compound: CCCCCCC#Cc1cncc(-c2nnc(SCc3ccc(Cl)cc3)n2C2CC2)c1 [drawing 136]
- IC50 [1, 6]: 5.1 ± 0.7 µM
- selectivity index (SI) (Vero cells): 4.8
- CC50 at 72 hour [2]: 25 ± 2.5 µM

Compound: CCCCCCC#Cc1cncc(-c2nnc(SCc3ccc([N+](=O)[O-])o3)n2C2CC2)c1 [drawing 137]
- IC50 [1, 6]: 0.05 ± 0.003 µM
- selectivity index (SI) (Vero cells): 165
- CC50 at 72 hour [2]: 7.8 ± 0.48 µM

Compound: Cn1c(SCc2ccc(Cl)cc2)nnc1-c1cncc(C#Cc2ccccc2)c1 [drawing 138]
- IC50 [1, 6]: 2.2 ± 0.4 µM
- CC50 (Vero cells): > 100 µM
- selectivity index (SI) (Vero cells): >46

Compound: CCCCCCC#Cc1cncc(-c2nnc(SCc3ccc([N+](=O)[O-])o3)n2C)c1 [nitrofuran bearing analog]
- antimycobacterial activity (in words) (wild-type (WT) Mtb; text b333-b334, MABA): most potent

Compound: COC(=O)[C@H]1[C@H]2C[C@@H]3c4[nH]c5cc(OC)ccc5c4CCN3C[C@H]2C[C@@H](OC(=O)c2cc(OC)c(OC)c(OC)c2)[C@@H]1OC [reserpine, reference compound]
- PBS solubility (μM) (PBS solubility): 7.8^[d] μM

Compound: Capuramycin B [reference compound]
- % Cell Viability Average (Vero TMPRSS2 cells): 92.07% and 91.55% and 94.73%
- % Cell Viability Replicate 1 (Vero TMPRSS2 cells): 90.49% and 90.38% and 96.50%
- % Cell Viability Replicate 2 (Vero TMPRSS2 cells): 93.64% and 92.73% and 92.96%
